Data published in US20180171411A1, “GFRalpha1 AS A BIOMARKER FOR CISPLATIN-INDUCED CHEMORESISTANCE AND METASTASIS” (THE BOARD OF REGENTS OF THE UNIVERSITY OF TEXAS SYSTEM, priority 2015, published 2018).

Key:
[1] = system: Src/AMPK signaling in MG-63 cells; experiment: Immunoblot of Src/AMPK/mTOR signaling; assay type: cell-based, human; settings: cisplatin 20 μM, 24 hr
Description: FIG. 4. GFRα1 regulates autophagy by Src/AMPK signaling in osteosarcoma cells. (a-b) Immunoblot analysis of osteosarcoma cell lysates with antibodies specific for GFRα1, p-Src, Src, p-AMPK, AMPK, p-mTOR, mTOR, p-p70 S6Kinase, Beclin 1, HMGB1, LC3, and β-actin. (a) MG-63 and cells were treated with cisplatin (20 μM) for 24 hr. (b) Control and GFRα1-deficient MG-63 cells were treated with cisplatin (20 μM) for 24 hr. (c-e) Immunoblot analysis of osteosarcoma cell lysates with antibodies specific for GFRα1, p-Src, Src, p-AMPK, AMPK, LC3, and β-actin. (c) Control and Src-deficient MG-63 cells were treated with cisplatin (20 μM) for 24 hr. (d) MG-63 cells were cultured in the presence or absence of PP1 (5 μM) and then treated with cisplatin (20 μM) for 24 hr. (e) MG-63 cells were cultured in the presence or absence of Compound C and then treated with cisplatin (20 μM) for 24 hr. (f) Cell viability of MG-63 cells after cisplatin treatment in the presence of PP1. MG-63 cells were cultured with DMSO or PP1 (2, 5 μM) and then treated with cisplatin (20 μM) for 24 hr. Cell viability was measured using the WST-1 assay. The values are represented as a mean±s.d.m. (n=3). ** denotes p<0.05 by t-test. (g) Cell viability of MG-63 cells after cisplatin treatment in the presence of Compound C. MG-63 cells were cultured with DMSO or Compound C (5, 10 μM) and then treated with cisplatin (20 μM) for 24 hr. Cell viability was measured using the WST-1 assay. The values are represented as a mean±s.d.m. (n=3). ** denotes p<0.05 by t-test.
Immunoblotting. Cells were washed with PBS and lysed in RIPA Buffer (Pierce, Rockford, Ill.). The protein content was determined using a dye-binding microassay (Bio-Rad, Hercules, Calif.), and 10-50 μg protein per lane was electrophoresed on 4-12% SDS polyacrylamide gels. Proteins were blotted onto Hybond ECL membranes (Amersham Pharmacia Biotech, Piscataway, N.J.). Two protein ladders were used for molecular weight determination (GenDEPOT, Barker, Tex.). The blotted proteins were detected using an enhanced chemiluminescence detection system (iNtRON, Seoul, Korea). Data were quantified and analyzed with Image-J software.

MG-63 cells = experiment: WST-1 cell viability of MG-63 cells; assay type: cell-based, human; settings: GDNF 50 ng/ml, 24 h
Description: FIG. 4. GFRα1 regulates autophagy by Src/AMPK signaling in osteosarcoma cells. (a-b) Immunoblot analysis of osteosarcoma cell lysates with antibodies specific for GFRα1, p-Src, Src, p-AMPK, AMPK, p-mTOR, mTOR, p-p70 S6Kinase, Beclin 1, HMGB1, LC3, and β-actin. (a) MG-63 and cells were treated with cisplatin (20 μM) for 24 hr. (b) Control and GFRα1-deficient MG-63 cells were treated with cisplatin (20 μM) for 24 hr. (c-e) Immunoblot analysis of osteosarcoma cell lysates with antibodies specific for GFRα1, p-Src, Src, p-AMPK, AMPK, LC3, and β-actin. (c) Control and Src-deficient MG-63 cells were treated with cisplatin (20 μM) for 24 hr. […] Cell viability was measured using the WST-1 assay. […] Cell viability was measured using the WST-1 assay. […]
FIG. 7. […] (a) Quantitative real-time PCR of GDNF mRNA expression after cisplatin treatment. […] (b-d) Cell viability was measured using the WST-1 assay. […] (f) Quantitative analysis of the number of yellow puncta and the number of RFP-LC3 puncta in the combined images of Control and GFRα1-overexpressing MG-63 cells treated with GDNF. […]
Cell viability assays. […] Cell viability was determined by measuring the absorbance after adding WST-1. The spectrophotometric absorbance of the samples was measured using an Ultra Multifunctional Microplate Reader (Tecan, Durham, N.C.) at 450 nm. […]

Molecule: N.N.[Cl][Pt][Cl] [cisplatin, Cis-Diamineplatinum(II) dichloride]
- level of phosphorylated AMPK [1]: increased
- level of phosphorylated S6K (P70-S6Kinase) [1]: decreased
- level of phosphorylated Src [1]: increased
- level of phosphorylated mTOR [1]: decreased

B1: GDNF: glial cell line-derived neurotrophic factor, the major ligand of GFRα1 (protein, UniProt P39905 78-211, looked up)
Glial cell line-derived …: SPDKQMAVLPRRERNRQAAAANPENSRGKGRRGQRGKNRGCVLTAIHLNVTDLGLGYETKEELIFRYCSGSCDAAETTYDKILKNLSRNRRLVSDKVGQACCRPIAFDDDLSFLDDNLVYHILRKHSAKRCGCI
- cell proliferation of MG-63 cells (MG-63 cells): no effect
